Values joined by “and” are separate entries in the source; they are usually repeats but may differ in a detail not shown here. Equal values may be shown once. Read-outs that look alike come from different tables or passages of the source.
Experiments:
[1] = tested on: EML4-ALK C1156Y BaF3 cells; experiment: BaF3 stables cell viability (WST-1); settings: Mus musculus, BaF3, read-out: BaF3 Stables IC50 nM C1156Y
ALK = ALK (Homo sapiens (Human), UniProt Q9UM73); experiment: In vitro kinase activity assay (LANCE TR-FRET); format: biochemical; settings: read-out: GTx-ALK IC50;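 further: kinase reactions with ATP and a poly-GT peptide substrate, phosphorylated product read by time-resolved FRET, 11-point curve from 10^−11 to 10^−5 M, DMSO as negative control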
Sequence of ALK (Q9UM73 19-1620): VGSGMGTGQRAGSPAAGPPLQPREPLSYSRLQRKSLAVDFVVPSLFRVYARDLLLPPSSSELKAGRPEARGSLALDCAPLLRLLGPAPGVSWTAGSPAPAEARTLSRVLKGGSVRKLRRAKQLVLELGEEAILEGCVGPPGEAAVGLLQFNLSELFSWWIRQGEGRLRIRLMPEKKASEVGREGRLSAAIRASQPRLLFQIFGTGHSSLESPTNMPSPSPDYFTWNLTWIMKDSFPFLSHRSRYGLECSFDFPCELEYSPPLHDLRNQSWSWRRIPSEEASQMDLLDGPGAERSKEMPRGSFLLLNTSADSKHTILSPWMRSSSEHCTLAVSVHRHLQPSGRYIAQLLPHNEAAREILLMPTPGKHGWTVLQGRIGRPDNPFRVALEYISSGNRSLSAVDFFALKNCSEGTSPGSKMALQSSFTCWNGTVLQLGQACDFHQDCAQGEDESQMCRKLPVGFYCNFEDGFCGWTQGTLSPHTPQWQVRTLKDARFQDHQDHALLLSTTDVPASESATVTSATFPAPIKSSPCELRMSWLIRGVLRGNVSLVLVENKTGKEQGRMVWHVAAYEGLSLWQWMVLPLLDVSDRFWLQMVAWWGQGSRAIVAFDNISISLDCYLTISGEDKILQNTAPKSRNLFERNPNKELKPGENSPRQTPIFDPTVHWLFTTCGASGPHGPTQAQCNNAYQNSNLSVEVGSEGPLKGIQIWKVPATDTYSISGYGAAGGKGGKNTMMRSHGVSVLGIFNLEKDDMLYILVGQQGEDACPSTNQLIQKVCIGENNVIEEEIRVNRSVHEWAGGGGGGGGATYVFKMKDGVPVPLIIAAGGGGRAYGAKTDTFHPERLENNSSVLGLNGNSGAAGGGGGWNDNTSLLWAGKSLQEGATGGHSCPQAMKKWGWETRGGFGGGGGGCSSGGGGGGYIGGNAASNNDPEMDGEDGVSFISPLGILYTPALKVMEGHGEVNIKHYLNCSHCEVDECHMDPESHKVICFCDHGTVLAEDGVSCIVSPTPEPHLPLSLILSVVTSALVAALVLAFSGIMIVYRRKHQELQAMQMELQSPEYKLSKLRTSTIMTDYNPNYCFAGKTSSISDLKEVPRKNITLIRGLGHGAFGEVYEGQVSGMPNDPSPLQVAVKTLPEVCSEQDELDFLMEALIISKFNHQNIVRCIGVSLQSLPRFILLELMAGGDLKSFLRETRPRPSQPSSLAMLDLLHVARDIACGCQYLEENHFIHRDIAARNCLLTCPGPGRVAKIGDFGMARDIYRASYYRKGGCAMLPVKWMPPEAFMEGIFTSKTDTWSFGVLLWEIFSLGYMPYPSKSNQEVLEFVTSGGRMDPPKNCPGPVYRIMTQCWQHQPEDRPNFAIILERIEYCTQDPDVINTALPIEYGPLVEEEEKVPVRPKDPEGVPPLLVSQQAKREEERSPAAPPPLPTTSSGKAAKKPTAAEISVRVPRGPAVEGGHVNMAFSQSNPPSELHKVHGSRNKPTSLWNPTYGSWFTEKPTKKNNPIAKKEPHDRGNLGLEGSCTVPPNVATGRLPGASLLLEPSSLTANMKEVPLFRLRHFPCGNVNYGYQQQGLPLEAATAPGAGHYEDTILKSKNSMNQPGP

FLT3-ITD BaF3 cells = experiment: BaF3 stables cell viability (WST-1); settings: Mus musculus, BaF3, read-out: BaF3 Stables IC50 nM FLT3-ITD
NPM-ALK BaF3 cells = experiment: BaF3 stables cell viability (WST-1); settings: Mus musculus, BaF3, read-out: BaF3 Stables IC50 nM NPMALK
[2] = tested on: EML4-ALK R1275Q BaF3 cells; experiment: BaF3 stables cell viability (WST-1); settings: Mus musculus, BaF3, read-out: BaF3 Stables IC50 nM R1275Q, EML4-ALK construct
[3] = tested on: NPM-ALK R1275Q BaF3 cells; experiment: BaF3 stables cell viability (WST-1); settings: Mus musculus, BaF3, read-out: BaF3 Stables IC50 nM R1275Q
ALK (WT) = ALK (WT) (Homo sapiens (Human), UniProt Q9UM73); experiment: Cell free kinase assay (Carna Biosciences kinases); format: biochemical
Sequence of ALK (WT) (Q9UM73 1060-1620): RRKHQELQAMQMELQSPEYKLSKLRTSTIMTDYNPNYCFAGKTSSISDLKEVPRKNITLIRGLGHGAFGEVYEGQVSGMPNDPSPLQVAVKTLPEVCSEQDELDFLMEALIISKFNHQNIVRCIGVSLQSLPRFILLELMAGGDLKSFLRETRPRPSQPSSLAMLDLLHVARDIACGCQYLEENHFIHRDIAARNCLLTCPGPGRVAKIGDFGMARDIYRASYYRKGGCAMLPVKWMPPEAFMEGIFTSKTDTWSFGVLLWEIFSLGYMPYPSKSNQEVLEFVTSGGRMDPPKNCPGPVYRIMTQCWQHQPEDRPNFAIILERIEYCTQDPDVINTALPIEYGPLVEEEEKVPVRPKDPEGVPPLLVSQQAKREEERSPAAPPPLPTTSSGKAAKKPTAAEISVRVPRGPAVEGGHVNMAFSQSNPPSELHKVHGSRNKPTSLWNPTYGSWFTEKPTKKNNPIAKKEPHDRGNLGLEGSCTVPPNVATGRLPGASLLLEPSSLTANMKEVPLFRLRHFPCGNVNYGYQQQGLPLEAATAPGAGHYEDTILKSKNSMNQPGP

ALK R1275Q = ALK R1275Q (Homo sapiens (Human), UniProt Q9UM73, R1275Q); experiment: Cell free kinase assay (Carna Biosciences kinases); format: biochemical
Sequence of ALK R1275Q (Q9UM73 1060-1620 R1275Q): as the sequence (Q9UM73 1060-1620) above, with R216Q counted along it

EML4-ALK BaF3 cells = experiment: BaF3 stables cell viability (WST-1); settings: Mus musculus, BaF3, read-out: BaF3 Stables IC50 nM EML4-ALK
[4] = tested on: NPM-ALK C1156Y BaF3 cells; experiment: BaF3 stables cell viability (WST-1); settings: Mus musculus, BaF3, read-out: BaF3 Stables IC50 nM C1156Y
ROS = ROS (Homo sapiens (Human), UniProt P08922); experiment: In vitro kinase activity assay (LANCE TR-FRET); format: biochemical; settings: read-out: ROS (nM) IC50
in vitro [5] = settings: human, microsomes
Mouse pharmacokinetics = settings: for AUC: plasma, 10 mg/kg
[6] = Caco-2 cell permeation study; format: in vitro ADME; settings: human, Caco-2, 10 μM;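 further: Caco-2 monolayers grown for 21–28 days with integrity confirmed by TEER, apical buffer HBSS with MES, basolateral buffer HBSS with HEPES, compound levels quantified by LC/MS/MS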
[7] = microsomes, 0.5 μM, pH 7.4
[8] = Guinea pig pharmacokinetics; settings: for AUC(0-t): plasma, 10 mg/kg
U937 lymphoma cells = experiment: Cellular assay, 3 day cell viability (WST-1); format: cell-based; settings: Homo sapiens, U-937, 72 h; 3 days, WST-1; read-out: U937 IC50
RET = RET (Homo sapiens (Human), UniProt P07949); experiment: In vitro kinase activity assay (LANCE TR-FRET); format: biochemical; settings: read-out: RET (nM) IC50
[9] = Metabolic stability, Phase I microsome reactions; format: in vitro ADME, mouse; settings: mouse, pH 7.4, Phase I only, 1.0 mg/ml microsomes, read-out: Mouse LM-P1 Half-life
K299 lymphoma cells = experiment: Cellular assay, 3 day cell viability (WST-1); format: cell-based; settings: 3 days, read-out: K299 IC50
[10] = Metabolic stability, Phase I microsome reactions; settings: rat, microsomes
in vitro [11] = settings: rat, microsomes
TrkB = TrkB (Homo sapiens (Human), UniProt Q16620); experiment: In vitro kinase activity assay (LANCE TR-FRET); format: biochemical; settings: read-out: TrkB (nM) IC50
[12] = Rat pharmacokinetics / bioavailability; format: in vivo
[13] = biological target: hERG (human ether-a-go-go related gene) potassium channel (Homo sapiens (Human), UniProt Q12809); experiment: hERG potassium channel current, automated patch clamp (PatchXpress 7000A);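 further: Four-point series of 0.3, 3, 10 and 30 µM, two cells recorded per concentration, 5 min exposure at each level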
Sequence of hERG (human ether-a-go-go related gene) potassium channel (Q12809 whole entry): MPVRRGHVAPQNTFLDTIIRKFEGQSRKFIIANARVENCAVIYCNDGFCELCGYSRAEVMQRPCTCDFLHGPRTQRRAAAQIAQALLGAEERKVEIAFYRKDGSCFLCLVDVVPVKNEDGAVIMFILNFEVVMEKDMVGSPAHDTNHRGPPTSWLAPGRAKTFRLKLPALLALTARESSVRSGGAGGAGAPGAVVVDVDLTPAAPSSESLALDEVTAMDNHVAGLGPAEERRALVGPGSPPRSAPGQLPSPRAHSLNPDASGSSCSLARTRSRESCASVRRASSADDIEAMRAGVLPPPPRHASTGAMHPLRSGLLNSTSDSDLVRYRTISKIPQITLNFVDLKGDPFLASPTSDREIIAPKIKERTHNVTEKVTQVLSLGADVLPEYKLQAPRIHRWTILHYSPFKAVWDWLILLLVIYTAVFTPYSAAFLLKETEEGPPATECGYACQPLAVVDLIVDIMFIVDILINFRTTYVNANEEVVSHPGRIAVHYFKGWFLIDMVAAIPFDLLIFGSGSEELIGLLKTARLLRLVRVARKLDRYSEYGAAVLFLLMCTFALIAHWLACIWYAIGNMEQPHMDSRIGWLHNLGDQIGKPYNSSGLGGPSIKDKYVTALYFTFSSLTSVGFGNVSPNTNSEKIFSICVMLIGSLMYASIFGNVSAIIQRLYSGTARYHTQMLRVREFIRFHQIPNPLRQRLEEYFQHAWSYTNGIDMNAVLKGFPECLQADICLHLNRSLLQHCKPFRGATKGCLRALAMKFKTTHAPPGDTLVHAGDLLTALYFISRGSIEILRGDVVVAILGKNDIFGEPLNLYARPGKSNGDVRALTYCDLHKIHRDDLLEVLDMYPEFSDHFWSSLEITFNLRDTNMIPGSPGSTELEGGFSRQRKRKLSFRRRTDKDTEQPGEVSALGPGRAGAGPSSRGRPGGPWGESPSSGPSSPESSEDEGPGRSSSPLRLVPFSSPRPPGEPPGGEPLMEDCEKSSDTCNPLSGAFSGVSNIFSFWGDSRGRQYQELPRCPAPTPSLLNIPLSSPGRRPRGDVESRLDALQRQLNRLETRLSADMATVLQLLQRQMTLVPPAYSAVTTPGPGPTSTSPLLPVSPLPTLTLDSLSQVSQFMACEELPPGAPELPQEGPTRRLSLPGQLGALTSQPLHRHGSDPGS

hERG potassium channel = hERG potassium channel (Homo sapiens (Human), UniProt Q12809); experiment: as above; settings: human; for inhibition at 5 min, 30 µM: 30 μM (low solubility at this concentration)
Sequence of hERG potassium channel (Q12809 whole entry): as above

SUDHL-1 lymphoma cells = experiment: Cellular assay, 3 day cell viability (WST-1); format: cell-based; settings: 3 days, WST-1; read-out: SUDHL-1 IC50
NB-1 neuroblastoma cells = experiment: Cellular assay, 3 day cell viability (WST-1); format: cell-based; settings: 72 h, 3 days, WST-1, read-out: NB-1 IC50
[14] = male, Sprague-Dawley, plasma, iv, 10 mg/kg I.V.
[15] = male, Sprague-Dawley, plasma, po, 10 mg/kg P.O.
[16] = Individual Data Points (% Inhibition)
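Wherever Human LM-P1 Half-life (min) is given: liver microsomes at 1.0 mg/ml with NADPH regenerating system, 37 °C, sampled at 0, 5, 10, 30 and 60 min, parent compound quantified by LC-MS/MS.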

In the case of `Cc1ccc(F)cc1C[C@H](C)Nc1cc[nH]c(=O)c1-c1nc2cc3c(cc2[nH]1)CN(CCN(C)C)C3=O` (stereo in doubt) [Compound 45, 2-(4-(1-(5-Fluoro-2-methylphenyl)propan-2-ylamino)-2-oxo-1,2-dihydropyridin-3-yl)-6-(2-(dimethylamino)ethyl)-6,7-dihydroimidazo[4,5-f]isoindole-5(1H)-one], the IC50 [1] is reported as 90 ± 3.2 nM, the IC50 (ALK) is reported as 7 nM and 14 nM and the IC50 (FLT3-ITD BaF3 cells) is reported as over 1 nM. For the same compound, the IC50 (NPM-ALK BaF3 cells) was 46 ± 2 nM, the IC50 [2] was about 90 nM and the IC50 [3] was 81 ± 4.2 nM. For the same compound, the IC50 (ALK (WT)) was 3.3 nM, the IC50 (ALK R1275Q; read-out: Cell Free IC50 (nM) R1275O) was 16.8 nM and the “cell free R1275Q resistance” value (ALK R1275Q; vs ALK (WT)) was 4 fold. For the same compound, the IC50 (EML4-ALK BaF3 cells) was 66 ± 2.7 nM and the IC50 [4] was 72 ± 1.2 nM.
Compound `C[C@@H](Cc1c(F)c(F)cc(F)c1F)Nc1cc[nH]c(=O)c1-c1nc2cc3c(cc2[nH]1)CN(CCN(C)C)C3=O` [Compound 1, (S)-6-(2-(Dimethylamino)ethyl)-2-(2-oxo-4-((1-(2,3,5,6-tetrafluorophenyl)propan-2-yl)amino)-1,2-dihydropyridin-3-yl)-6,7-dihydroimidazo[4,5-f]isoindol-5(3H)-one] has an IC50 (ROS) of 0.205 nM, a microsomal CLint at 0.5 μM (in vitro [5]; pH 7.4, Human LM-P1 CL (ul/min/mg)) of 5.87 µL/min/mg and a half-life at 0.5 μM (in vitro [5]; pH 7.4, Human LM-P1 Half-life (min)) of 1.97 h. The F (Mouse pharmacokinetics; 10 mg/kg SC) was 30%, the AUC (Mouse pharmacokinetics; iv) was 1770 ng·h/mL and the AUC (Mouse pharmacokinetics; sc) was 522 ng·h/mL. For the same compound, the Papp A→B at 2 h, 10 μM ([6]; apical pH 6.5, 2 h) was under 0.2 ×10⁻⁶ cm/s, the Papp B→A at 2 h, 10 μM ([6]; basolateral pH 7.4, 2 h) was 19.9 ×10⁻⁶ cm/s and the IC50 (FLT3-ITD BaF3 cells) was over 3 nM. It also gave an IC50 [3] of 279 ± 21 nM, an F (Dog pharmacokinetics; 5 mg/kg PO) of 12% and an AUC(0-t) (Dog pharmacokinetics; plasma, iv, 1 mg/kg) of 483 ng·h/mL. For the same compound, the AUC (Dog pharmacokinetics; plasma, po, 5 mg/kg) was 287 ng·h/mL, the “Human LM-P1 Half-life” value [7] was over 2 h and the F ([8]; 10 mg/kg PO) was 1%. For the same compound, the AUC(0-t) ([8]; iv) was 3570 ng·h/mL, the AUC(0-t) ([8]; po) was 37.2 ng·h/mL and the IC50 (U937 lymphoma cells) was 1600 nM. The IC50 (RET) was 3.53 nM, the half-life at 0.5 μM [9] was 8.4 min and the IC50 (K299 lymphoma cells; 72 h) was 76 nM. The IC50 (K299 lymphoma cells) was 73 nM, the microsomal CLint at 0.5 μM ([10]; pH 7.4) was 100 µL/min/mg and the half-life at 0.5 μM ([10]; pH 7.4, Rat LM-P1 Half-life (min), Phase I only, 0.5 μM, 1.0 mg/ml microsomes) was 6.99 min. The half-life at 0.5 μM (in vitro [11]; pH 7.4) was 8.43 min, the microsomal CLint at 0.5 μM (in vitro [11]; pH 7.4, Rat LM-P1 CL (ul/min/mg)) was 82.2 µL/min/mg and the IC50 (TrkB) was 2.06 nM. For the same compound, the “IV_AUC0-1440 Rat 10 mpk” value ([12]; 10 mg/kg I.V.) was 329 µg·min/mL, the “PO_AUC0-1440 Rat 10 mpk” value ([12]; 10 mg/kg P.O.) was 0.943 µg·min/mL and the MRT [12, 14] was 22.7 h. It also gave a clearance [12, 14] of 25.5 mL/min/kg, a half-life [12, 14] of 22.1 h and a Vd ([12]; male, Sprague-Dawley, plasma, iv, 10 mg/kg I.V., read-out: Vss) of 23.9 L/kg. The Cmax [12, 15] was 2.21 ng/mL, the Tmax [12, 15] was 1.88 h and the bioavailability ([12]; male, Sprague-Dawley, plasma, po, 10 mg/kg P.O., read-out: Rat F %) was 0.287%. The IC50 [13] was 6250 nM, the “Individual Data Points (% Inhibition)” value ([13]; 0.3 μM) was 5.0% and the “Individual Data Points (% Inhibition)” value ([13]; 3 μM) was 36.3%. The “Individual Data Points (% Inhibition)” value ([13]; 10 μM) was 49.4%, the “Individual Data Points (% Inhibition)” value ([13]; 30 μM (low solubility at this concentration)) was 62.7% and the inhibition at 5 min, 0.3 µM (hERG potassium channel; [16]) was 5.9%. It also gave an inhibition at 5 min, 3 µM (hERG potassium channel; [16]) of 43.6%, an inhibition at 5 min, 10 µM (hERG potassium channel; [16]) of 59.4% and an inhibition at 5 min, 30 µM (hERG potassium channel; [16]) of 71.1%. The inhibition at 5 min, 0.3 µM (hERG potassium channel; Mean % hERG Inhibition) was 5.5%, the inhibition at 5 min, 3 µM (hERG potassium channel; Mean % hERG Inhibition) was 39.9% and the inhibition at 5 min, 10 µM (hERG potassium channel; Mean % hERG Inhibition) was 54.4%. The inhibition at 5 min, 30 µM (hERG potassium channel; Mean % hERG Inhibition) was 66.9%, the IC50 (SUDHL-1 lymphoma cells) was 22 nM and the IC50 (NB-1 neuroblastoma cells) was 177 nM.
